Assay results published in US20250230193A1, “CYCLIC COMPOUND HAVING SELECTIVE KRAS INHIBITORY EFFECT ON HRAS AND NRAS” (CHUGAI SEIYAKU KABUSHIKI KAISHA, priority 2022, published 2025).

Tests used:
[1] = molecular target: GDP-bound NRAS wild-type protein (Homo sapiens, UniProt P01111); experiment: Binding to NRAS by surface plasmon resonance (SPR), Single Cycle Kinetics; settings: SPR; KD ratio class
[2] = molecular target: GDP-bound HRAS wild-type protein (Homo sapiens, UniProt P01112); experiment: Binding to HRAS by surface plasmon resonance (SPR), Single Cycle Kinetics; settings: SPR; KD ratio class
Chain of GDP-bound HRAS wild-type protein (P01112 whole entry): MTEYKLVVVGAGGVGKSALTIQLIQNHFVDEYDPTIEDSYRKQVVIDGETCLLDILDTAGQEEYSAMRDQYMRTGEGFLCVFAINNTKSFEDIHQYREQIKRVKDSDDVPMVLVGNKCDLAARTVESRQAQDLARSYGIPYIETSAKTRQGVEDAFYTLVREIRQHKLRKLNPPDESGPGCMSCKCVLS

[3] = tested on: human lung cancer strain NCI-H441; experiment: cells; settings: NCI-H441, 96 h, read-out: NCI-H441 IC50 (nM)

Chain of GDP-bound NRAS wild-type protein (P01111 whole entry): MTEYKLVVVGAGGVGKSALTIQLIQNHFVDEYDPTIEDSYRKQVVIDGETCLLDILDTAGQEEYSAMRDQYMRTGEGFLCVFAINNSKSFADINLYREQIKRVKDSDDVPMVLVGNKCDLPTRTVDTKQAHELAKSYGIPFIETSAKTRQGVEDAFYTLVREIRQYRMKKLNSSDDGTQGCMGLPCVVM

| Compound | NRAS/KRAS (ratio of KD value for GDP-bound NRAS wild-type protein to KD value for KRAS) [1] | HRAS/KRAS (ratio of KD value for GDP-bound HRAS wild-type protein to KD value for KRAS) [2] | IC50 [3] [nM] |
| --- | --- | --- | --- |
| CCO[C@@H]1C[C@H]2C(=O)NC3(CCC3)C(=O)N(C)[C@@H](C3CCCC3)C(=O)N(C)[C@H](C(=O)N(C)C)CC(=O)N(C)[C@@H](CC3CC3)C(=O)N[C@@H]([C@@H](C)CC)C(=O)N(C)CC(=O)N(C)[C@H]3C/C=C\CCN(C3=O)[C@@H](CC3CCCCC3)C(=O)N(C)CC(=O)N[C@@H](CCc3cc(F)c(C(F)(F)F)c(F)c3)C(=O)N2C1 [PP1446] | A (a compound having 10 or more and less than 20 is denoted as A) | A (a compound having 10 or more and less than 20 is denoted as A) | 32 |
| CCO[C@@H]1C[C@H]2C(=O)NC3(CCC3)C(=O)N(C)[C@@H](C3CCCC3)C(=O)N(C)[C@H](C(=O)N(C)C)CC(=O)N(C)[C@@H](CC3CCCC3)C(=O)N[C@@H]([C@@H](C)CC)C(=O)N(C)CC(=O)N(C)[C@H]3C/C=C\CCN(C3=O)[C@@H](CC3CCC(F)(F)CC3)C(=O)N(C)CC(=O)N[C@@H](CCc3cc(F)c(C(F)(F)F)c(F)c3)C(=O)N2C1 [PP1458] | A (a compound having 10 or more and less than 20 is denoted as A) | A (a compound having 10 or more and less than 20 is denoted as A) | 18.2 |
| CCO[C@@H]1C[C@H]2C(=O)NC3(CCCC3)C(=O)N(C)[C@@H](C3CCCC3)C(=O)N(C)[C@H](C(=O)N(C)C)CC(=O)N(C)[C@@H](CC(C)C)C(=O)N[C@@H]([C@@H](C)CC)C(=O)N(C)CC(=O)N(C)[C@H]3C/C=C\CCN(C3=O)[C@@H](CC3CCC(F)(F)CC3)C(=O)N(C)CC(=O)N[C@@H](CCc3cc(F)c(C(F)(F)F)c(F)c3)C(=O)N2C1 [PP1459] | A (a compound having 10 or more and less than 20 is denoted as A) | A (a compound having 10 or more and less than 20 is denoted as A) | 38.6 |
| CCO[C@@H]1C[C@H]2C(=O)NC3(CCC3)C(=O)N(C)[C@@H](C3CCCC3)C(=O)N(C)[C@H](C(=O)N(C)C)CC(=O)N(C)[C@@H](CC(C)(C)C)C(=O)N[C@@H]([C@@H](C)CC)C(=O)N(C)CC(=O)N(C)[C@H]3C/C=C\CCN(C3=O)[C@@H](CC3CCC(F)(F)CC3)C(=O)N(C)CC(=O)N[C@@H](CCc3cc(F)c(C(F)(F)F)c(F)c3)C(=O)N2C1 [PP1460] | A (a compound having 10 or more and less than 20 is denoted as A) | A (a compound having 10 or more and less than 20 is denoted as A) | 32.9 |
| CC[C@H](C)[C@@H]1NC(=O)[C@H](CC)N(C)C(=O)C[C@@H](C(=O)N(C)C)N(C)C(=O)[C@H](C2CCCC2)N(C)C(=O)C2(CCC2)NC(=O)[C@@H]2CCCN2C(=O)[C@H](CCc2cc(F)c(C(F)(F)F)c(F)c2)NC(=O)CN(C)C(=O)[C@H](CC2CCC(F)(F)CC2)N2CC/C=C\C[C@@H](C2=O)N(C)C(=O)CN(C)C1=O [PP1461] | A (a compound having 10 or more and less than 20 is denoted as A) | A (a compound having 10 or more and less than 20 is denoted as A) | 121 |
| CC[C@H](C)[C@@H]1NC(=O)[C@H](CC)N(C)C(=O)C[C@@H](C(=O)N(C)C)N(C)C(=O)[C@H](C2CCCC2)N(C)C(=O)C2(CCC2)NC(=O)[C@@H]2C[C@@H](C(F)(F)F)CN2C(=O)[C@H](CCc2cc(F)c(C(F)(F)F)c(F)c2)NC(=O)CN(C)C(=O)[C@H](CC2CCCCC2)N2CC/C=C\C[C@@H](C2=O)N(C)C(=O)CN(C)C1=O [PP1465] | A (a compound having 10 or more and less than 20 is denoted as A) | A (a compound having 10 or more and less than 20 is denoted as A) | 34.1 |
| CCO[C@@H]1C[C@H]2C(=O)NC3(CCC3)C(=O)N(C)[C@@H](C3CCCC3)C(=O)N(C)[C@H](C(=O)N(C)C)CC(=O)N(C)[C@@H](CC3CCC3)C(=O)N[C@@H]([C@@H](C)CC)C(=O)N(C)CC(=O)N(C)[C@H]3C/C=C\CCN(C3=O)[C@@H](CC3CCCCC3)C(=O)N(C)CC(=O)N[C@@H](CCc3cc(F)c(C(F)(F)F)c(F)c3)C(=O)N2C1 [PP1469] | A (a compound having 10 or more and less than 20 is denoted as A) | A (a compound having 10 or more and less than 20 is denoted as A) | 22.2 |
| CCO[C@@H]1C[C@H]2C(=O)NC3(CCCC3)C(=O)N(C)[C@@H](C3CCCC3)C(=O)N(C)[C@H](C(=O)N(C)C)CC(=O)N(C)[C@@H](C)C(=O)N[C@@H]([C@@H](C)CC)C(=O)N(C)CC(=O)N(C)[C@H]3C/C=C\CCN(C3=O)[C@@H](CC3CCCCC3)C(=O)N(C)CC(=O)N[C@@H](CCc3cc(F)c(C(F)(F)F)c(F)c3)C(=O)N2C1 [PP1470] | A (a compound having 10 or more and less than 20 is denoted as A) | A (a compound having 10 or more and less than 20 is denoted as A) | 111 |
| CC[C@H](C)[C@@H]1NC(=O)[C@H](CC)N(C)C(=O)C[C@@H](C(=O)N(C)C)N(C)C(=O)[C@H](C2CCCC2)N(C)C(=O)C2(CCC2)NC(=O)[C@@H]2C[C@H](C)CN2C(=O)[C@H](CCc2cc(F)c(C(F)(F)F)c(F)c2)NC(=O)CN(C)C(=O)[C@H](CC2CCCCC2)N2CC/C=C\C[C@@H](C2=O)N(C)C(=O)CN(C)C1=O [PP1471] | A (a compound having 10 or more and less than 20 is denoted as A) | A (a compound having 10 or more and less than 20 is denoted as A) | 48.2 |
| CCO[C@@H]1C[C@H]2C(=O)NC3(CCCC3)C(=O)N(C)[C@@H](C3CCCC3)C(=O)N(C)[C@H](C(=O)N(C)C)CC(=O)N(C)[C@@H](CC(C)C)C(=O)N[C@@H]([C@@H](C)CC)C(=O)N(C)CC(=O)N(C)[C@H]3C/C=C\CCN(C3=O)[C@@H](CC3CCCCC3)C(=O)N(C)CC(=O)N[C@@H](CCc3cc(F)c(C(F)(F)F)c(F)c3)C(=O)N2C1 [PP1473] | A (a compound having 10 or more and less than 20 is denoted as A) | A (a compound having 10 or more and less than 20 is denoted as A) | 36.6 |
| CCO[C@@H]1C[C@H]2C(=O)NC3(CCC3)C(=O)N(C)[C@@H](C3CCCC3)C(=O)N(C)[C@H](C(=O)N(C)C)CC(=O)N(C)[C@@H](CC(C)(C)C)C(=O)N[C@@H]([C@@H](C)CC)C(=O)N(C)CC(=O)N(C)[C@H]3C/C=C\CCN(C3=O)[C@@H](CC3CCCCC3)C(=O)N(C)CC(=O)N[C@@H](CCc3cc(F)c(C(F)(F)F)c(F)c3)C(=O)N2C1 [PP1474] | A (a compound having 10 or more and less than 20 is denoted as A) | A (a compound having 10 or more and less than 20 is denoted as A) | 48.2 |
| CC[C@H](C)[C@@H]1NC(=O)[C@H](CC)N(C)C(=O)C[C@@H](C(=O)N(C)C)N(C)C(=O)[C@H](C2CCCC2)N(C)C(=O)C2(CCC2)NC(=O)[C@@H]2CCCN2C(=O)[C@H](CCc2cc(F)c(C(F)(F)F)c(F)c2)NC(=O)CN(C)C(=O)[C@H](CC2CCCCC2)N2CC/C=C\C[C@@H](C2=O)N(C)C(=O)CN(C)C1=O [PP1475] | A (a compound having 10 or more and less than 20 is denoted as A) | A (a compound having 10 or more and less than 20 is denoted as A) | 48.9 |
| CCO[C@@H]1C[C@H]2C(=O)NC3(CCC3)C(=O)N(C)[C@@H](C3CCCC3)C(=O)N(C)[C@H](C(=O)N(C)C)CC(=O)N(C)[C@@H](CC3CC3)C(=O)N[C@@H]([C@@H](C)CC)C(=O)N(C)CC(=O)N(C)[C@H]3C/C=C\CCN(C3=O)[C@@H](Cc3ccc(F)cc3C)C(=O)N(C)CC(=O)N[C@@H](CCc3ccc(Cl)c(Cl)c3)C(=O)N2C1 [PP1476] | A (a compound having 10 or more and less than 20 is denoted as A) | B (a compound having 3 or more and less than 10 is denoted as B) | 216 |
| CCO[C@@H]1C[C@H]2C(=O)NC3(CCC3)C(=O)N(C)[C@@H](C3CCCC3)C(=O)N(C)[C@H](C(=O)N(C)C)CC(=O)N(C)[C@@H](CC3CC3)C(=O)N[C@@H]([C@@H](C)CC)C(=O)N(C)CC(=O)N(C)[C@H]3C/C=C\CCN(C3=O)[C@@H](Cc3ccc(F)cc3C)C(=O)N(C)CC(=O)N[C@@H](CCc3cc(F)c(Cl)c(F)c3)C(=O)N2C1 [PP1477] | A (a compound having 10 or more and less than 20 is denoted as A) | B (a compound having 3 or more and less than 10 is denoted as B) | 309 |
| CCO[C@@H]1C[C@H]2C(=O)NC3(CCC3)C(=O)N(C)[C@@H](C3CCCC3)C(=O)N(C)[C@H](C(=O)N(C)C)CC(=O)N(C)[C@@H](CC3CC3)C(=O)N[C@@H]([C@@H](C)CC)C(=O)N(C)CC(=O)N(C)[C@H]3C/C=C\CCN(C3=O)[C@@H](Cc3ccc(F)cc3)C(=O)N(C)CC(=O)N[C@@H](CCc3ccc(Cl)c(Cl)c3)C(=O)N2C1 [PP1478] | A (a compound having 10 or more and less than 20 is denoted as A) | A (a compound having 10 or more and less than 20 is denoted as A) | 102 |
